The values that follow come from patent US11938121B2, “Treatment of infections and biofilm formation using a cellulose synthase inhibitor” (Purdue Research Foundation, priority 2020, dated 2024).

The subject of experiment [1] is PIN2-GFP, GFP-PIP2a, GFP-HDEL, VHA-a1-GFP, YFP-Got1p. The experiment can be described thus: Live-cell imaging of fluorescence-tagged marker proteins. The experiment is classed as cell-based, Arabidopsis thaliana. The note with it: 6 μM, 2 h. On the procedure:
To test the effect of ES20-1 on cellular localization of endomembrane marker proteins, transgenic plants expressing different fluorescence-tagged proteins were grown on ½-strength MS agar plates for 5 d under continuous light. The seedlings were incubated in ½-strength MS liquid media supplemented with 6 μM ES20-1 for 2 h. The images were collected by Zeiss 710 laser scanning confocal microscope equipped with 40×/1.2 NA water objective. For images of GFP-tagged proteins, the 488-nm laser line was used as an excitation source and emission light at 493-598 nm was collected. For images of YFP-tagged proteins, the 514-nm laser line was used as an excitation source and the emission light at 519-621 nm was collected.

Experiment [2] concerns AtCESA6 carrying missense mutations in prc1-1. The experiment can be described thus: Root growth of transgenic plants expressing mutated AtCESA6 in prc1-1. In kind it is in vivo, Arabidopsis thaliana. The note with it: D562N, D564N, D785N, Q823E, R826A, W827A in prc1-1. An excerpt:
We then examined whether transgenic plants expressing AtCESA6 with predicted missense mutations at the catalytic site in prc1-1 background would have altered sensitivity to active ES20 analogs. […] However, the responses of two transgenic lines expressing AtCESA6 carrying missense mutations outside of the catalytic site (L365F and D395N) to nine active ES20 analogs were similar to those of wild-type plants (FIG. 2B).
To test the inhibitory effects of different chemicals on plant growth, wild-type Arabidopsis Col-0 plants were used. The seeds of plants used for growth assays or live cell imaging were sequentially sterilized with 50% bleach and 75% ethanol. […] To quantify the inhibitory effects of different ES20 active analogs on the root growth of Arabidopsis wildtype, EMS mutants, and transgenic plants expressing mutated AtCESA6 in prc1-1 background, sterilized Col-0, mutants, and transgenic plants seeds were sown on gridded Petri plates containing ½-strength MS medium supplemented with different concentrations of ES20 analogs. […] The plates were scanned using an Epson Perfection V550 scanner after 7 days of growth, and the root lengths of plants were quantified using ImageJ software. […] The Petri dishes were scanned, and hypocotyl length was measured using ImageJ. […]

Experiment [3] relates to maize (Zea mays). As to the kind of experiment: Maize seedling root growth. As to conditions: 20 μM. In kind it is in vivo. The text has this: ES20 has broad spectrum inhibitory effect on the growth of both dicotyledonous and monocotyledonous plants (Huang and Zhang, Plant Signal Behav. 2020, 15, 1780039). We tested whether ES20-1 has stronger inhibitory effect on the growth of monocotyledon plants than ES20. We grew rice (Oryza sativa) and maize (Zea mays) seedlings on the same concentrations of ES20 and ES20-1 and compared their effects on growth.

Experiment [4] has as its system Komagataeibacter xylinus. The experiment can be described thus: K. xylinus cellulose production in liquid culture. The note with it: 20 μM. In kind it is cell-based. The text has this:
We next grew K. xylinus cells in growth medium supplemented with DMSO, ES20, or ES20-1 under agitation. […] We also grew K. xylinus in liquid medium supplemented with DMSO, ES20, or ES20-1 under static cultivation conditions. Without agitation, pellicles containing cellulose often form at the air-liquid interface. […] To quantify the effects of ES20 and ES20-1 on cellulose production, we harvested the pellicles from these cultures and isolated cellulose from the pellicles.
Komagataeibacter xylinus (previously named Gluconacetobacter xylinus) ATCC strain 700178 was obtained from ATCC (Manassas, Va., USA) to evaluate cellulose production. HS (Hestrin and Schramm) medium was used for culture; HS liquid medium contains 2.0% glucose (w/v), 0.5% yeast extract (w/v), 0.5% peptone (w/v), 0.27% Na2HPO4 (w/v), and 0.15% citric acid (w/v), pH 5.0, and HS solid medium was solidified with 1.8% agar (w/v). To prepare the initial inoculation source, a single K. xylinus colony grown on HS solid medium was transferred to HS liquid medium and cultured at 26° C. for 5 days under static conditions. We used cells from the bottom of the liquid culture as the initial inoculation source to avoid biofilm aggregates at the air-liquid interface. To test the effect of ES20 and ES20-1 on the bacteria growth, initial inoculation source was series diluted and 20 μL culture from each diluted solution was dropped on HS solid medium supplemented with DMSO (0.1%) or different concentrations of ES20 and ES20-1 and cultured at 26° C. for 6 days after the dropped culture was completely dry. To test the effects of ES20 and ES20-1 on cellulose production, the prepared inoculation source was inoculated at a dilution ratio of 1:1000 dilution in HS liquid medium supplemented with 0.1% DMSO or 20 μM of ES20 or ES20-1. Static cultivation was carried out in a 26° C. incubator, and agitated cultivation was carried out at 26° C. with shaking at 220 rpm. To isolate cellulose from pellicles, the pellicles were removed from liquid culture, washed several times with deionized water, and soaked in 0.1 M NaOH at 80° C. for 2 h. The pellicles were washed several times with deionized water to completely remove the alkali. The purified cellulose was dried at 60° C. for ˜1 day until a constant dry mass was reached.

The mark [5] stands for this setting: 5 days static cultivation, vs DMSO.

With `Cc1ccccc1C(=O)NNC(=S)NC(=O)c1ccccc1` [ES20-1], in experiment [1], the “cellular localization of PIN2-GFP” value is “not significantly affected” and the “cellular localization of organelle marker proteins GFP-PIP2a, GFP-HDEL, VHA-a1-GFP, YFP-Got1p” value is given as “are not affected”. In addition, the “sensitivity of transgenic lines with AtCESA6 catalytic site mutations” value in experiment [2] is “Reduced sensitivity”. Moreover, the “maize root growth inhibition” value in experiment [3] (6-day-old seedlings) is on record as “could inhibit the root growth”. In experiment [3] (same dosage), the “degree of maize root growth inhibition compared with ES20” value is on record as “much stronger than that of the same dosage of ES20”. For the same molecule, the “size of cellulose clusters” value in experiment [4] (5 days agitated cultivation, vs DMSO) is “smaller”. In addition, in experiment [4] (5 days static cultivation, mean±SD, n=9), the “dry mass of cellulose from pellicles” value worked out at 346 ± 152 mg/L. Also, in experiment [4] (setting [5]), the “decrease of dry mass of cellulose from pellicles” value was around 30% and the pellicle thickness result was “pellicles in cultures containing DMSO are thicker”.
